In patent US8076487B2, “Pyridone derivative and herbicide” (Kumiai Chemical Industry Co., Ltd., priority 2006, dated 2011):

Legend:
Type in all cases: in vivo
[1] = test system: velvetleaf (Abutilon theophrasti medicus); experiment: Test Example 3: herbicidal effect by application to upland field (foliage treatment); details: 14th day after application; for herbicidal effect, Velvetleaf: foliage treatment, 1,000 g active ingredient per 1 hectare, greenhouse; for herbicidal effect (index), Velvetleaf: foliage treatment, plants grown two weeks, 1,000 g active ingredient per hectare
Outline: (§1)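 Plants were sown in field soil and raised in a greenhouse for two weeks before foliar spraying. A water-diluted wettable powder was applied at 1,000 g active ingredient per hectare in 1,000 liters per hectare. Herbicidal effect was scored on a standard scale 14 days later.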

[2] = test system: green foxtail (Setaria viridis (L.) P. Beauv.); experiment: as above; details: 14th day after application; for herbicidal effect, Green Foxtail: foliage treatment, 1,000 g active ingredient per 1 hectare, greenhouse; for herbicidal effect (index), Green Foxtail: foliage treatment, plants grown two weeks, 1,000 g active ingredient per hectare
Outline: as §1

[3] = test system: barnyardgrass (Echinochloa crus-galli (L.) P. Beauv. var. crus-galli); experiment: as above; details: 14th day after application; for herbicidal effect, Barnyardgrass: foliage treatment, 1,000 g active ingredient per 1 hectare, greenhouse; for herbicidal effect (index), Barnyardgrass: foliage treatment, plants grown two weeks, 1,000 g active ingredient per hectare
Outline: as §1

[4] = test system: slender amaranth (Amaranthus viridis L.); experiment: as above; details: 14th day after application; for herbicidal effect, Slender Amaranth: foliage treatment, 1,000 g active ingredient per 1 hectare, greenhouse; for herbicidal effect (index), Slender Amaranth: foliage treatment, plants grown two weeks, 1,000 g active ingredient per hectare
Outline: as §1

[5] = test system: Japanese bulrush (Scirpus juncoides Roxb.); experiment: Test Example 1: herbicidal effect by soil application to paddy field; details: paddy field soil application; active ingredient 1,000 g per 1 hectare; wettable powder added dropwise to water surface the day after sowing; examined on the 21st day after application
Outline: (§2)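 Plants were sown in flooded (3 cm) paddy soil and evaluated for herbicidal effect 21 days after soil application in a greenhouse.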

[6] = test system: heartshape false pickerelweed (Monochoria vaginalis (Burm.f.) C.Presl); experiment: as above; details: paddy field soil application; active ingredient 1,000 g per 1 hectare; wettable powder added dropwise to water surface the day after sowing; examined on the 21st day after application
Outline: as §2

[7] = test system: early watergrass (Echinochloa oryzicola Vasing); experiment: as above; details: paddy field soil application; active ingredient 1,000 g per 1 hectare; wettable powder added dropwise to water surface the day after sowing; examined on the 21st day after application
Outline: as §2

[8] = test system: velvetleaf (Abutilon theophrasti medicus); experiment: Test Example 2: herbicidal effect by soil application to upland field; details: soil surface spray, upland field soil, 1,000 g active ingredient per hectare, 21st day after application
Outline: (§3)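 Pre-emergence soil test: seeds sown in pots of field soil, then wettable-powder formulation sprayed on soil surface at 1,000 g active ingredient per hectare in 1,000 L water per hectare. Plants grown in greenhouse; herbicidal effect scored on a standard scale at day 21.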

[9] = test system: green foxtail (Setaria viridis (L.) P. Beauv.); experiment: as above; details: soil surface spray, upland field soil, 1,000 g active ingredient per hectare, 21st day after application
Outline: as §3

[10] = test system: barnyardgrass (Echinochloa crus-galli (L.) P. Beauv. var. crus-galli); experiment: as above; details: soil surface spray, upland field soil, 1,000 g active ingredient per hectare, 21st day after application
Outline: as §3

[11] = test system: slender amaranth (Amaranthus viridis L.); experiment: as above; details: soil surface spray, upland field soil, 1,000 g active ingredient per hectare, 21st day after application
Outline: as §3

| SMILES | herbicidal effect, Velvetleaf [1] | herbicidal effect, Green Foxtail [2] | herbicidal effect, Barnyardgrass [3] | herbicidal effect, Slender Amaranth [4] | herbicidal effect, Scirpus juncoides Roxb. [5] | herbicidal effect, Monochoria vaginalis (Burm. f.) C. Presl [6] | herbicidal effect, Echinochloa oryzicola Vasing [7] | herbicidal effect (index), Velvetleaf [8] | herbicidal effect (index), Green Foxtail [9] | herbicidal effect (index), Barnyardgrass [10] | herbicidal effect (index), Slender Amaranth [11] | herbicidal effect (index), Velvetleaf [1] | herbicidal effect (index), Green Foxtail [2] | herbicidal effect (index), Barnyardgrass [3] | herbicidal effect (index), Slender Amaranth [4] |
| --- | --- | --- | --- | --- | --- | --- | --- | --- | --- | --- | --- | --- | --- | --- | --- |
| Cc1ccsc1-n1c(C(F)(F)F)ccc(C(=O)C2=C(O)CCCC2=O)c1=O [I-149] | 5 (90% or more of herbicidal effect and crop phytotoxicity) | 5 (90% or more of herbicidal effect and crop phytotoxicity) | 5 (90% or more of herbicidal effect and crop phytotoxicity) | 5 (90% or more of herbicidal effect and crop phytotoxicity) | 5 (90% or more of herbicidal effect and crop phytotoxicity) | 5 (90% or more of herbicidal effect and crop phytotoxicity) | 5 (90% or more of herbicidal effect and crop phytotoxicity) | 5 (90% or more of herbicidal effect and crop phytotoxicity) | 5 (90% or more of herbicidal effect and crop phytotoxicity) | 5 (90% or more of herbicidal effect and crop phytotoxicity) | 5 (90% or more of herbicidal effect and crop phytotoxicity) | – | – | – | – |
| CS(=O)(=O)c1ccc(-n2c(C(F)(F)F)ccc(C(=O)C3=C(O)CCCC3=O)c2=O)cc1 [I-83] | – | – | – | – | 5 (90% or more of herbicidal effect and crop phytotoxicity) | 5 (90% or more of herbicidal effect and crop phytotoxicity) | 5 (90% or more of herbicidal effect and crop phytotoxicity) | 5 (90% or more of herbicidal effect and crop phytotoxicity) | 5 (90% or more of herbicidal effect and crop phytotoxicity) | 5 (90% or more of herbicidal effect and crop phytotoxicity) | 5 (90% or more of herbicidal effect and crop phytotoxicity) | 5 (90% or more of herbicidal effect and crop phytotoxicity) | 5 (90% or more of herbicidal effect and crop phytotoxicity) | 5 (90% or more of herbicidal effect and crop phytotoxicity) | 5 (90% or more of herbicidal effect and crop phytotoxicity) |
| CCN(C)n1c(C(F)(F)F)ccc(C(=O)C2=C(O)CCCC2=O)c1=O [I-175] | 5 (90% or more of herbicidal effect and crop phytotoxicity) | 4 (70 to less than 90% of herbicidal effect and crop phytotoxicity) | 5 (90% or more of herbicidal effect and crop phytotoxicity) | 5 (90% or more of herbicidal effect and crop phytotoxicity) | 5 (90% or more of herbicidal effect and crop phytotoxicity) | 5 (90% or more of herbicidal effect and crop phytotoxicity) | 5 (90% or more of herbicidal effect and crop phytotoxicity) | 5 (90% or more of herbicidal effect and crop phytotoxicity) | 5 (90% or more of herbicidal effect and crop phytotoxicity) | 5 (90% or more of herbicidal effect and crop phytotoxicity) | 5 (90% or more of herbicidal effect and crop phytotoxicity) | – | – | – | – |
| CC1(C)C(=O)C(C(=O)c2ccc(C(F)(F)F)n(-c3ccccc3)c2=O)=C(O)C(C)(C)C1=O [II-41] | 5 (90% or more of herbicidal effect and crop phytotoxicity) | 5 (90% or more of herbicidal effect and crop phytotoxicity) | 5 (90% or more of herbicidal effect and crop phytotoxicity) | 4 (70 to less than 90% of herbicidal effect and crop phytotoxicity) | 4 (70 to less than 90% of herbicidal effect and crop phytotoxicity) | 5 (90% or more of herbicidal effect and crop phytotoxicity) | 5 (90% or more of herbicidal effect and crop phytotoxicity) | 5 (90% or more of herbicidal effect and crop phytotoxicity) | 5 (90% or more of herbicidal effect and crop phytotoxicity) | 4 (70 to less than 90% of herbicidal effect and crop phytotoxicity) | 5 (90% or more of herbicidal effect and crop phytotoxicity) | – | – | – | – |
| CCCSCn1c(C(F)(F)F)ccc(C(=O)C2=C(O)CCCC2=O)c1=O [I-50] | – | – | – | – | 5 (90% or more of herbicidal effect and crop phytotoxicity) | 5 (90% or more of herbicidal effect and crop phytotoxicity) | 5 (90% or more of herbicidal effect and crop phytotoxicity) | 5 (90% or more of herbicidal effect and crop phytotoxicity) | 5 (90% or more of herbicidal effect and crop phytotoxicity) | 5 (90% or more of herbicidal effect and crop phytotoxicity) | 5 (90% or more of herbicidal effect and crop phytotoxicity) | 5 (90% or more of herbicidal effect and crop phytotoxicity) | 3 (50 to less than 70% of herbicidal effect and crop phytotoxicity) | 5 (90% or more of herbicidal effect and crop phytotoxicity) | 5 (90% or more of herbicidal effect and crop phytotoxicity) |
| Cc1cccc(-n2cccc(C(=O)C3=C(O)CCCC3=O)c2=O)c1 [I-238] | 5 (90% or more of herbicidal effect and crop phytotoxicity) | 4 (70 to less than 90% of herbicidal effect and crop phytotoxicity) | 5 (90% or more of herbicidal effect and crop phytotoxicity) | 5 (90% or more of herbicidal effect and crop phytotoxicity) | 5 (90% or more of herbicidal effect and crop phytotoxicity) | 5 (90% or more of herbicidal effect and crop phytotoxicity) | 5 (90% or more of herbicidal effect and crop phytotoxicity) | 5 (90% or more of herbicidal effect and crop phytotoxicity) | 4 (70 to less than 90% of herbicidal effect and crop phytotoxicity) | 5 (90% or more of herbicidal effect and crop phytotoxicity) | 5 (90% or more of herbicidal effect and crop phytotoxicity) | – | – | – | – |
| Cn1ncc(C(=O)c2ccc(C(F)(F)F)n(-c3ccc4c(c3)OCCO4)c2=O)c1O [IV-101] | 4 (70 to less than 90% of herbicidal effect and crop phytotoxicity) | 3 (50 to less than 70% of herbicidal effect and crop phytotoxicity) | 5 (90% or more of herbicidal effect and crop phytotoxicity) | 4 (70 to less than 90% of herbicidal effect and crop phytotoxicity) | 5 (90% or more of herbicidal effect and crop phytotoxicity) | 5 (90% or more of herbicidal effect and crop phytotoxicity) | 5 (90% or more of herbicidal effect and crop phytotoxicity) | 4 (70 to less than 90% of herbicidal effect and crop phytotoxicity) | 4 (70 to less than 90% of herbicidal effect and crop phytotoxicity) | 5 (90% or more of herbicidal effect and crop phytotoxicity) | 5 (90% or more of herbicidal effect and crop phytotoxicity) | – | – | – | – |
| CCCS(=O)(=O)Oc1c(C(=O)c2ccc(C(F)(F)F)n(-c3ccc(OC)c(F)c3)c2=O)cnn1C [IV-93] | 4 (70 to less than 90% of herbicidal effect and crop phytotoxicity) | 4 (70 to less than 90% of herbicidal effect and crop phytotoxicity) | 4 (70 to less than 90% of herbicidal effect and crop phytotoxicity) | 5 (90% or more of herbicidal effect and crop phytotoxicity) | 5 (90% or more of herbicidal effect and crop phytotoxicity) | 5 (90% or more of herbicidal effect and crop phytotoxicity) | 5 (90% or more of herbicidal effect and crop phytotoxicity) | 5 (90% or more of herbicidal effect and crop phytotoxicity) | 4 (70 to less than 90% of herbicidal effect and crop phytotoxicity) | 5 (90% or more of herbicidal effect and crop phytotoxicity) | 5 (90% or more of herbicidal effect and crop phytotoxicity) | – | – | – | – |
